Experiments:
[1] = system: MC38 murine colon tumor; experiment: Efficacy in syngeneic MC38 murine colon tumor model; assay type: in vivo, mouse (C57/BL6); details: Day 17; C57/BL6 mice with s.c. MC38 tumors; BNC105P 10 mg/kg i.v. Day 1, 8, 15; anti-PD1 (Clone RMP1-14) 3.5 mg/kg i.p. Day 1, 4, 8, 12, 16
Protocol: The present inventors conducted a study to determine the efficacy of BNC105 in combination with the immunotherapeutic anti-PD1 antibody in the syngeneic MC38 murine colon tumor model. BNC105P was administered at 10 mg/kg i.v., on Day 1, 8 and 15, anti-PD1 antibody (Clone RMP1-14) was administered at 3.5 mg/kg i.p. on Day 1, 4, 8, 12 and 16. C57/BL6 mice were inoculated subcutaneously with MC38 cells. When tumors reached a volume of approximately 100-150 mm3 animals were randomised into groups of 10 mice per group.
1. Saline+PBS control 2. Saline+IgG2a isotypc control antibody 3. BNC105P+IgG2a isotype control antibody 4. Saline+anti-PD1 antibody 5. BNC105P+anti-PD1 antibody
The in-life pan of this study was completed on Day 18 of the treatment period due to tumor size in the control groups reaching the ethical limit. Tumors and blood were collected for FACS analysis and also tumors were collected for histology. FACS analysis and histology is currently under way and is aimed at identifying changes of immune T-cell populations following treatment.

[2] = system: CT26 murine colon tumor; experiment: Efficacy in syngeneic CT26 murine colon tumor model; assay type: in vivo, mouse (Balb/c); details: Day 11; Balb/c mice with s.c. CT26 tumors; BNC105 10 mg/kg Days 1 and 8; anti-CTLA4 (Clone 9D9) 10 mg/kg i.p. Days 2, 5, 9
Protocol: The present inventors conducted a separate study to determine the efficacy of BNC105 in combination with the immune-oncology therapeutic antibody anti-CTLA4 in the syngeneic CT26 murine colon tumor model. BNC105 (10 mg/kg) was administered on Days 1 and 8, the anti-CTLA4 antibody (Clone 9D9) was administered at 10 mg/kg i.p. on Days 2, 5, and 9. Balb/c mice were inoculated subcutaneously with C1′26 cells. When tumors reached an average volume of approximately 135 mm3 animals were randomised into 5 groups of 10 mice per group.
1. Saline+PBS control 2. Saline+IgG2b isotype control, antibody 3. BNC105P+IgG2b isotype control antibody 4. Saline+anti-CTLA4 antibody 5. BNC105P+anti-CTLA4 antibody
The in-life part of this study was completed on Day 12 of the treatment period due to tumor sizes in the control groups reaching ethical limits. Tumors were collected for both FAGS analysis and for histology. FAGS analysis and histology arc currently in progress and aim to identify changes of immune T-cell populations following treatment.

[3] = system: tumor vasculature (Renca); experiment: Vascular stain perfusion in murine orthotopic model of Renal Cancer (Renca); assay type: in vivo; details: perfusion of a vascular stain
Text: In a murine orthotopic model of Renal Cancer (Renca) the present inventors have shown using perfusion of a vascular stain that tumor blood vessels arc obliterated after BNC105 treatment compared to normal tissue which remains unaffected.

[4] = system: IFNγ; experiment: Tumoral levels of IFNγ; assay type: in vivo; details: 16 mg/kg BNC105 versus saline (FIG. 3)
Protocol: FIG. 3. Tumoral levels of IFNγ in animals administered with saline or 16 mg/kg BNC105.
(§1) BNC105 primes the immunogenic potential of a tumor with increased tumoral IFNγ content compared to control treated animals (FIG. 3). IFNγ is secreted from CD4+ Th1, CD8+ and Th0 cells and activated NK cells.

[5] = system: CD3+/CD8+ cells; experiment: Tumoral CD3+/CD8+ cells; details: in vivo
Text: as §1

[6] = system: IL-12 subunit p40; experiment: Plasma biomarker analysis, Phase II mesothelioma trial (Multi-Analyte Profile); assay type: in vivo, human; details: patients, BNC105 16 mg/m2 monotherapy
Protocol: FIG. 4. Changes in levels of IL-12 p40 and II: 10 following administration with BNC105. Phase II Mesothelioma trial BNC105 (16 mg/m2) number of patients=19. Blood draws were pre-specified and optional. Patients receiving BNC105 alone received blood draws prior to BNC105 administration and 3 hours following administration. Plasma samples were used to determine exploratory analytes using Multi-Analyte Profile (MAP) technology (Myriad RBM). Graph showing % change from baseline. Percent change was calculated as analyse plasma concentration (post-baseline)/baseline*100. Mean±SEM shown on graph.
The balance between pro-inflammatory and anti-inflammatory signals provided by different immune cell populations is crucial for normal physiology and the suppression of cancer development. By altering this homeostasis an opportunity is provided for the immune system to alter the way it responds. Biomarker analysis on patient samples was conducted from a Phase II BNC105 monotherapy mesothelioma trial. […] The immune-modulatory cytokine IL-12 subunit p40, a key member of the IL-12 cytokine family, has emerged as a potent inducer of antitumor immunity. IL-12 subunit p40 is secreted by activated macrophages and serves as an essential inducer of Th1 cells development.

[7] = system: tumor infiltrating macrophages (CD11b+); experiment: Number of tumor infiltrating macrophages; assay type: in vivo; details: after treatment, monotherapy and combination (FIG. 5)
Text: FIG. 5. Reduction in the number of tumor infiltrating macrophages (CD11b+) after treatment with BNC105 (monotherapy and combination).
This reduction would dramatically change the immune environment potentially releasing the immune dampening effect of macrophage subsets.

| Structure (SMILES) | tumor growth inhibition (TGI) [1] [%] | tumor growth inhibition [2] [%] | normal tissue vasculature after treatment [3] | tumor blood vessels after treatment [3] | tumoral IFNγ content compared to control treated animals [4] | change in tumoral CD3+/CD8+ cells [5] | plasma IL-12 subunit p40 post administration ([6]; 3 hours following administration versus baseline) | plasma IL-12 subunit p40 at Day 8 post dosing ([6]; Day 8) | number of tumor infiltrating macrophages (CD11b+) [7] |
| --- | --- | --- | --- | --- | --- | --- | --- | --- | --- |
| COc1cc(C(=O)c2c(C)oc3c(O)c(OC)ccc23)cc(OC)c1OC [BNC105, 2-methyl-7-hydroxy-3-(3,4,5-trimethoxybenzoyl)-6-methoxybenzofuran] | 40 | 27 | unaffected | obliterated | increased | No change | significantly increases | remains elevated | significant reduction |
| COc1cc(C(=O)c2c(C)oc3c(OP(=O)([O-])[O-])c(OC)ccc23)cc(OC)c1OC.[Na+].[Na+] [BNC105P, di sodium [6-methoxy-2-methyl-3-(3,4,5-trimethoxybenzoyl)-1-benzofuran-7-yl] phosphate] | 40 | 27 |  |  |  |  |  |  |  |

Source: patent US20210069147A1, “PHARMACEUTICAL COMBINATION AND USES THEREOF” (BIONOMICS LIMITED, priority 2015, published 2021)
